Data on eleven compounds can be found in PubChem BioAssay (NCI).

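Assay format: 96-well plates, 48-hour exposure. GI50 = concentration required for 50% inhibition of growth. TGI: concentration producing complete growth inhibition.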

Test systems include A549 NSCLC; SF-268 CNS; DU-145 prostate; MOLT-4 leukemia; HCT-116 colon; T-47D breast; HS 578T breast; MDA-MB-231 breast; M14 melanoma; SNB-75 CNS.
Common to all, as to experiment: NCI-60 cell line screen, 48 h

Consider `CC1=C(CCCOC(=O)[C@H](N)CC(C)C)C2=C(C)C3(CC3)[C@@](C)(O)C(=O)C2=C1`, for which the GI50 with A549 NSCLC is 3.06 µM; with SF-268 CNS, 0.736 µM; in the assay on DU-145 prostate, 0.392 µM; in the assay with MOLT-4 leukemia, 24.6 µM; in the assay with HCT-116 colon, 1.7 µM; in the assay with T-47D breast it was 1.84 µM. Further, the GI50 in the assay with HS 578T breast was 5.3 µM; in the assay with MDA-MB-231 breast, 2.03 µM; with M14 melanoma it was 1.67 µM; with SNB-75 CNS, 1.34 µM. Also, the TGI with A549 NSCLC is 30.9 µM; in the assay on SF-268 CNS, greater than 47.2 µM; with DU-145 prostate, greater than 100 µM; with MOLT-4 leukemia it was greater than 100 µM; with HCT-116 colon, 5.91 µM; in the assay with T-47D breast it was 6.53 µM. Besides, the TGI in the assay with HS 578T breast came out at 43.8 µM; in the assay with MDA-MB-231 breast it was 6.42 µM; in the assay on M14 melanoma, 4.41 µM; in the assay with SNB-75 CNS, 3.05 µM.

On to `CN(C)CCNC(=O)c1cc2c3cc(Cl)ccc3[nH]c2c2ncccc12`, for which the GI50 in the assay on A549 NSCLC is 1.93 µM; in the assay on SF-268 CNS, 2.81 µM; in the assay with DU-145 prostate, 3.4 µM; in the assay with MOLT-4 leukemia it was 1.54 µM; in the assay on HCT-116 colon, 1.52 µM; in the assay with T-47D breast, 3.8 µM. The GI50 with HS 578T breast was 1.87 µM; in the assay on MDA-MB-231 breast it was 1.98 µM; in the assay with M14 melanoma, 1.7 µM; in the assay on SNB-75 CNS, 3.85 µM. In addition, the TGI in the assay with A549 NSCLC is 4.7 µM; in the assay on SF-268 CNS, 11.8 µM; with DU-145 prostate, 12.7 µM; in the assay with MOLT-4 leukemia, 4.27 µM; in the assay with HCT-116 colon it was 4.68 µM; with T-47D breast it was 17.8 µM. Also, the TGI with HS 578T breast came out at 9.66 µM; in the assay with MDA-MB-231 breast, 9.77 µM; in the assay on M14 melanoma, 3.68 µM; with SNB-75 CNS, 15.8 µM.

Take `Cn1ncnc1[C@@H]1c2n[nH]c(=O)c3cc(F)cc(c23)N[C@H]1c1ccc(F)cc1`: the GI50 in the assay with A549 NSCLC, in the assay on SF-268 CNS, in the assay on DU-145 prostate, in the assay with MOLT-4 leukemia, in the assay with HCT-116 colon and in the assay on T-47D breast was greater than 100 µM in each case. Further, the GI50 in the assay on HS 578T breast, in the assay with MDA-MB-231 breast, in the assay on M14 melanoma and in the assay on SNB-75 CNS was greater than 100 µM in each case. The TGI with A549 NSCLC, with SF-268 CNS, with DU-145 prostate, with MOLT-4 leukemia, in the assay on HCT-116 colon and in the assay on T-47D breast was greater than 100 µM throughout. Further, the TGI in the assay with HS 578T breast, in the assay with MDA-MB-231 breast, with M14 melanoma and in the assay on SNB-75 CNS was greater than 100 µM in each case.

For `Cc1c(Cl)cccc1C(=O)Nc1nc2c(s1)CN(C(=O)Nc1cccc(C(F)(F)F)c1)CC2`, the GI50 with A549 NSCLC was 0.33 µM; in the assay on SF-268 CNS, 0.467 µM; with DU-145 prostate it was 0.204 µM; with MOLT-4 leukemia, 0.291 µM; in the assay on HCT-116 colon it was 0.212 µM; in the assay with T-47D breast, 0.239 µM. Also, the GI50 with HS 578T breast was 0.163 µM; with MDA-MB-231 breast it was 0.59 µM; in the assay with M14 melanoma, 0.167 µM; with SNB-75 CNS, 0.104 µM. Besides, the TGI in the assay with A549 NSCLC, with SF-268 CNS, in the assay on DU-145 prostate, in the assay on MOLT-4 leukemia, in the assay with HCT-116 colon and with T-47D breast was greater than 50 µM throughout. Besides, the TGI in the assay with HS 578T breast was greater than 50 µM; with MDA-MB-231 breast, greater than 35.6 µM; in the assay on M14 melanoma it was greater than 50 µM; with SNB-75 CNS it was 3.52 µM.

In the case of `O=C(NCc1cn(Cc2cccc(Oc3ccccc3)c2)nn1)c1cccnc1Nc1ccc(F)cc1`, the GI50 in the assay with A549 NSCLC was 6.11 µM; in the assay on SF-268 CNS, 21 µM; in the assay with DU-145 prostate, 8.58 µM; in the assay on MOLT-4 leukemia it was greater than 100 µM; in the assay with HCT-116 colon, 5.02 µM; in the assay with T-47D breast, 21.4 µM. For the same compound, the GI50 in the assay on HS 578T breast was 30.9 µM; with MDA-MB-231 breast, 14.5 µM; with M14 melanoma, 13.7 µM; in the assay with SNB-75 CNS, 3.81 µM. Further, the TGI with A549 NSCLC, in the assay on SF-268 CNS, in the assay with DU-145 prostate, in the assay on MOLT-4 leukemia, in the assay on HCT-116 colon and with T-47D breast was greater than 100 µM in each case. For the same compound, the TGI is greater than 100 µM with HS 578T breast, greater than 100 µM in the assay on MDA-MB-231 breast, greater than 100 µM in the assay on M14 melanoma and 21.3 µM in the assay with SNB-75 CNS.

In the case of `CCCCn1c(=O)[nH]c(N)c([C@@H]2c3c([nH]c(=O)n(CCCC)c3=O)Oc3ccc4ccccc4c32)c1=O`, the GI50 with A549 NSCLC is 11.5 µM; in the assay on SF-268 CNS it was 1.76 µM; in the assay on DU-145 prostate, 1.8 µM; in the assay on MOLT-4 leukemia, 0.35 µM; with HCT-116 colon, 1.53 µM; in the assay on T-47D breast it was 10.7 µM. Moreover, the GI50 with HS 578T breast is 4.55 µM; in the assay with MDA-MB-231 breast, 1.85 µM; in the assay with M14 melanoma, 1.92 µM; in the assay with SNB-75 CNS it was 1.71 µM. For the same compound, the TGI in the assay on A549 NSCLC is 24.5 µM; with SF-268 CNS, 3.58 µM; in the assay with DU-145 prostate it was 3.25 µM; with MOLT-4 leukemia, 1.74 µM; in the assay with HCT-116 colon, 3.02 µM; in the assay with T-47D breast, 37.6 µM. The TGI in the assay with HS 578T breast was 37.1 µM; with MDA-MB-231 breast, 4.58 µM; with M14 melanoma, 4.2 µM; in the assay on SNB-75 CNS, 9.62 µM.

Consider `O=c1nc2n(-c3cccc(Cl)c3)c3ccc([N+](=O)[O-])cc3cc-2c(=O)[nH]1`, for which the GI50 is 12.7 µM in the assay with A549 NSCLC; 3.56 µM in the assay on SF-268 CNS; 6.73 µM with DU-145 prostate; 2.02 µM in the assay on MOLT-4 leukemia; 1.53 µM in the assay with HCT-116 colon; 7.82 µM with T-47D breast. In addition, the GI50 is 5.36 µM in the assay on MDA-MB-231 breast, 6.55 µM in the assay on M14 melanoma and 11.7 µM with SNB-75 CNS. The TGI in the assay on A549 NSCLC is greater than 25 µM; in the assay on SF-268 CNS it was 13.3 µM; in the assay with DU-145 prostate it was greater than 25 µM; with MOLT-4 leukemia, greater than 25 µM; in the assay with HCT-116 colon, 5.68 µM; with T-47D breast, greater than 25 µM. Also, the values for the TGI in the assay on MDA-MB-231 breast, in the assay with M14 melanoma and in the assay on SNB-75 CNS were 12.3 µM, 16.8 µM and greater than 25 µM, respectively.

For the compound `CC(C)=CCc1cc2c(cc1O)C1=C(C(=O)C3=C(NCCS3(=O)=O)C1=O)C(C=C(C)C)O2` (stereo unspecified), the GI50 with A549 NSCLC is greater than 16.7 µM; with SF-268 CNS, 4.13 µM; with MOLT-4 leukemia, 3.16 µM; in the assay with HCT-116 colon it was 5.84 µM; with T-47D breast, 4.05 µM; in the assay on HS 578T breast, 4.85 µM. In addition, the GI50 in the assay with MDA-MB-231 breast is 4.18 µM; in the assay with M14 melanoma it was 5.85 µM; in the assay with SNB-75 CNS, 10.8 µM. For the same compound, the TGI in the assay with A549 NSCLC is greater than 16.7 µM; in the assay with SF-268 CNS, greater than 16.7 µM; in the assay with MOLT-4 leukemia, 12.2 µM; in the assay on HCT-116 colon, greater than 16.7 µM; with T-47D breast, greater than 16.7 µM; with HS 578T breast, greater than 16.7 µM. Besides, the TGI in the assay with MDA-MB-231 breast is 16.2 µM; with M14 melanoma, greater than 16.7 µM; in the assay on SNB-75 CNS, greater than 16.7 µM.

In the case of `O=C(O)/C=C\C(=O)Nc1ccc2c(c1)-c1ccccc1C2`, the TGI in the assay on A549 NSCLC, in the assay on SF-268 CNS, in the assay on DU-145 prostate, in the assay on HCT-116 colon, in the assay on T-47D breast and in the assay on HS 578T breast was greater than 100 µM each time. The TGI with MDA-MB-231 breast, in the assay with M14 melanoma and in the assay on SNB-75 CNS was greater than 100 µM each time.

With `O=C(O)c1ccc(N(/C=C/C(=O)C(F)(F)F)Cc2ccc(Cl)cc2)cc1`, the GI50 with A549 NSCLC was 34.9 µM; in the assay on SF-268 CNS, greater than 100 µM; in the assay on DU-145 prostate, 22.4 µM; in the assay on MOLT-4 leukemia, 34.8 µM; in the assay on HCT-116 colon, 20.5 µM; in the assay with T-47D breast, 28.5 µM. Also, the GI50 in the assay on HS 578T breast was 26.4 µM; in the assay with MDA-MB-231 breast it was 18.6 µM; in the assay with M14 melanoma, 22.7 µM. The TGI in the assay on A549 NSCLC is greater than 100 µM; in the assay with SF-268 CNS it was greater than 100 µM; with DU-145 prostate, 62.1 µM; with MOLT-4 leukemia, greater than 100 µM; in the assay on HCT-116 colon it was 54.8 µM; in the assay on T-47D breast, 93.9 µM. Moreover, the TGI in the assay on HS 578T breast worked out at 84.7 µM; in the assay with MDA-MB-231 breast, 48.2 µM; in the assay with M14 melanoma, 62.7 µM.

Consider `O=S(=O)(NCCCNc1cc(-c2cn(-c3ccccc3)nc2-c2cccc(O)c2)ccn1)c1ccc(C(F)(F)F)cc1`, for which the GI50 in the assay with A549 NSCLC is 2.14 µM; with SF-268 CNS it was 1.85 µM; in the assay with DU-145 prostate, 2.65 µM; in the assay on MOLT-4 leukemia it was 1.83 µM; in the assay with HCT-116 colon it was 1.44 µM; with T-47D breast it was 2.49 µM. Further, the GI50 in the assay with HS 578T breast is 1.46 µM; in the assay on M14 melanoma, 1.66 µM; in the assay with SNB-75 CNS, 1.45 µM. The TGI came to 7.45 µM in the assay on A549 NSCLC; 4.95 µM with SF-268 CNS; 8.11 µM with DU-145 prostate; 5.36 µM in the assay with MOLT-4 leukemia; 2.95 µM in the assay on HCT-116 colon; 7.08 µM in the assay on T-47D breast. For the same compound, the TGI in the assay on HS 578T breast was found to be 5.77 µM; in the assay with M14 melanoma, 3.24 µM; in the assay on SNB-75 CNS it was 5.06 µM.
